In ChEMBL document CHEMBL5625161, “Pharmacological activity and mechanism of pyrazines” (Eur J Med Chem, 2023) one finds IC50, Activity and EC50 data, which are given here for 16 compounds.

One data set has as its target Coagulation factor X (Homo sapiens, UniProt P00742). Nature of the data set: Inhibition of human factor Xa.
In another data set the test system is MDA-MB-231. Nature of the data set: Antiproliferative activity against human MDA-MB-231 cells assessed as reduction in cell growth incubated for 48 hrs by MTT assay. To be noted: MDA-MB-231, 48 h. It is filed as functional, cell-based.
The nature of data set [1]: Antiproliferative activity against mouse L929 cells assessed as inhibition of cell growth incubated for 5 days by MTT assay. The class given is toxicity, cell-based.
In a further data set the test system is 4T1. Nature of the data set: Cytotoxicity against mouse 4T1 cells assessed as reduction in cell growth incubated for 48 hrs by MTT assay. To be noted: 4T1, 48 h. It is filed as functional, cell-based. Background: Formazan colour is commonly taken as a measure of viable cells.
The test system of data set [2] is MCF7. The data set can be described thus: Antiproliferative activity against human MCF7 cells assessed as reduction in cell growth incubated for 48 hrs by MTT assay. It is filed as functional, cell-based. The following applies: MCF7, 48 h.
The next data set has as its system HUVEC. Nature of the data set: Antiproliferative activity against VEGF-stimulated human HUVEC cells assessed as reduction in cell viability incubated for 72 hrs by Cell Counting Kit-8 assay. It is filed as functional, cell-based.
The test system of the next data set is HeLa. Nature of the data set: Antiproliferative activity against human HeLa cells assessed as reduction in cell viability incubated for 24 hrs by MTT assay. It is filed as functional, cell-based.
A further data set concerns PC-3. The data set can be described thus: Antiproliferative activity against human PC-3 cells assessed as reduction in cell viability incubated for 24 hrs by MTT assay. The class given is functional, cell-based. The following applies: PC-3, 24 h.
The subject of the next data set is HT-29. The data set can be described thus: Antiproliferative activity against human HT-29 cells assessed as reduction in cell viability incubated for 24 hrs by MTT assay. The following applies: HT-29, 24 h. The class given is functional, cell-based.
The test system of another data set is BGC-823. The data set can be described thus: Cytotoxicity against human BGC-823 cells assessed as reduction in cell viability incubated for 24 hrs by MTT assay. To be noted: BGC-823, 24 h. The class given is functional, cell-based.
The subject of data set [3] is MCF7. Nature of the data set: Antiproliferative activity against human MCF7 cells assessed as inhibition of cell growth at 10 uM incubated for 48 hrs by SRB assay relative to control. The class given is functional. On the set-up: scale not given: the % may be the effect or the level left.
A further data set concerns H322. The data set can be described thus: Antiproliferative activity against human H322 cells assessed as reduction in cell viability incubated for 48 hrs by SRB assay. It is filed as functional, cell-based. To be noted: NCI-H322, 48 h. (In general: The SRB assay estimates cell density from bound dye.)
In data set [4] the test system is A549. Nature of the data set: Antiproliferative activity against human A549 cells assessed as reduction in cell viability incubated for 48 hrs by SRB assay. To be noted: A549, 48 h. The class given is functional, cell-based.
The next data set relates to A2780. Nature of the data set: Antiproliferative activity against human A2780 cells assessed as reduction in cell growth incubated for 72 hrs by MTT assay. To be noted: A2780, 72 h. The class given is functional, cell-based.
The next data set deals with A-375. The data set can be described thus: Cytotoxicity against human A-375 cells assessed as reduction in cell growth measured after 24 hrs by MTT assay. To be noted: A-375, 24 h. The class given is functional, cell-based.
The next data set deals with FaDu. Nature of the data set: Antiproliferative activity against human FaDu cells assessed as inhibition of cell growth incubated for 72 hrs by 3H-thymidine incorporation assay. The class given is functional, cell-based.
The target in data set [5] is Telomerase reverse transcriptase (Homo sapiens, UniProt O14746). Nature of the data set: Inhibition of telomerase (unknown origin).
Telomerase reverse transcriptase, sequence (O14746 whole entry): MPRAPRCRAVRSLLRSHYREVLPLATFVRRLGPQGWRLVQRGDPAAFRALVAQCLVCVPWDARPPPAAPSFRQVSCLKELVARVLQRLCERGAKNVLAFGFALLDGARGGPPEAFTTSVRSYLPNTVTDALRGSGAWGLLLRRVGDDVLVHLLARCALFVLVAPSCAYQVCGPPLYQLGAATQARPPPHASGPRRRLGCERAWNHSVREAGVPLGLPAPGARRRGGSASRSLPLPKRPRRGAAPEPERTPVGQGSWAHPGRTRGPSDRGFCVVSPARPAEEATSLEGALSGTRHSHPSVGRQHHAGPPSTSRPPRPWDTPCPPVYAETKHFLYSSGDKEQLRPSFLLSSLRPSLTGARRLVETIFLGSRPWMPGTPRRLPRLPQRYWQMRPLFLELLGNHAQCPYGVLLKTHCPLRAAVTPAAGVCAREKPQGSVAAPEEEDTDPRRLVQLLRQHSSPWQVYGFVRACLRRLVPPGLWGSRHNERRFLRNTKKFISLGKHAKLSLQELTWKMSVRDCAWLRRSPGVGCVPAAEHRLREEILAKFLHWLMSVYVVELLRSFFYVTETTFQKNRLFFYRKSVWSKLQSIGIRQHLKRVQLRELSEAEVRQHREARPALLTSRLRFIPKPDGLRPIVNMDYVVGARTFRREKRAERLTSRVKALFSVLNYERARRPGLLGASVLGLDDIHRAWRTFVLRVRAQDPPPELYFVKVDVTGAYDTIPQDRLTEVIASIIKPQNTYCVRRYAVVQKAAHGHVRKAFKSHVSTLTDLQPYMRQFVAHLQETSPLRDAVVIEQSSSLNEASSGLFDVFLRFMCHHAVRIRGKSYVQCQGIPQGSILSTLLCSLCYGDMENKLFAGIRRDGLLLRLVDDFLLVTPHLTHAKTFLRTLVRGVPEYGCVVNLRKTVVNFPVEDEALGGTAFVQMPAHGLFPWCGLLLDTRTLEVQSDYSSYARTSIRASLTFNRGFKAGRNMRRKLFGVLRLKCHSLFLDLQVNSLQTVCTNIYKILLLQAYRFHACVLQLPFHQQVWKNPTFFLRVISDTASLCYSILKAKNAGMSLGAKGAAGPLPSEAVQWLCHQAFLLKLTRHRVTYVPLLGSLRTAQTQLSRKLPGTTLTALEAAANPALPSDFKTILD
The subject of the next data set is SW 1116. Nature of the data set: Antiproliferative activity against human SW 1116 cells assessed as reduction in cell growth incubated for 48 hrs by MTT assay. To be noted: SW 1116, 48 h. The class given is functional, cell-based.
Another data set concerns the target Histone deacetylase 1 (Homo sapiens, UniProt Q13547). Nature of the data set: Inhibition of human recombinant HDAC1.
The next data set has as its target Histone deacetylase 2 (Homo sapiens, UniProt Q92769). Nature of the data set: Inhibition of human recombinant HDAC2.
The target in another data set is Histone deacetylase 3 (Homo sapiens, UniProt O15379). The data set can be described thus: Inhibition of human recombinant HDAC3.
Histone deacetylase 3, sequence (O15379 whole entry): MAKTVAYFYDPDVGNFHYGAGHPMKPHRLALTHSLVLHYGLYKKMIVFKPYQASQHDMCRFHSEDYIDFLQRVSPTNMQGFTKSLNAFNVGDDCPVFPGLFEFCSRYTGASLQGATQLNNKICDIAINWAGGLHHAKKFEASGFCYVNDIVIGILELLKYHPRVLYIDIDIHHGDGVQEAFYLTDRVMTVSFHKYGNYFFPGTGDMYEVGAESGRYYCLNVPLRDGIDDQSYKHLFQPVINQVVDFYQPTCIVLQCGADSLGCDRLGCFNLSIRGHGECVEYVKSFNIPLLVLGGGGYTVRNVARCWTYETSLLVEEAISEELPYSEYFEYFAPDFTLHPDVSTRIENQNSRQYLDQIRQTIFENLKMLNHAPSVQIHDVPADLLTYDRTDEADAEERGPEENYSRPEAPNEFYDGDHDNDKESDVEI
Data set [6] concerns A549. Nature of the data set: Cytotoxicity against human A549 cells assessed as reduction in cell growth incubated for 72 hrs by CCK-8 assay. The class given is functional, cell-based. The following applies: A549, 72 h.
For the next data set, the system named is NCI-H460. Nature of the data set: Cytotoxicity against human NCI-H460 cells assessed as reduction in cell growth incubated for 72 hrs by CCK-8 assay. It is filed as functional, cell-based. To be noted: NCI-H460, 72 h.
The next data set concerns OVCAR-5. Nature of the data set: Cytotoxicity against human OVCAR-5 cells assessed as reduction in cell growth incubated for 72 hrs by CCK-8 assay. To be noted: OVCAR-5, 72 h. The class given is functional, cell-based.
In the next data set the test system is HEY. The data set can be described thus: Cytotoxicity against human HEY cells assessed as reduction in cell growth incubated for 72 hrs by CCK-8 assay. It is filed as functional, cell-based.
For a further data set, the system named is Caco-2. Nature of the data set: Cytotoxicity against human Caco-2 cells assessed as reduction in cell growth incubated for 72 hrs by CCK-8 assay. To be noted: Caco-2, 72 h. It is filed as functional, cell-based.
Another data set deals with ES-2. Nature of the data set: Cytotoxicity against human ES2 cells assessed as reduction in cell growth incubated for 72 hrs by CCK-8 assay. The class given is functional, cell-based. The following applies: ES-2, 72 h.
Another data set concerns SW626. Nature of the data set: Cytotoxicity against human SW626 cells assessed as reduction in cell growth incubated for 72 hrs by CCK-8 assay. To be noted: SW626, 72 h. The class given is functional, cell-based.
A further data set relates to SK-OV-3. Nature of the data set: Cytotoxicity against human SK-OV-3 cells assessed as reduction in cell growth incubated for 72 hrs by CCK-8 assay. It is filed as functional, cell-based. To be noted: SK-OV-3, 72 h.
For the next data set, the system named is NCI-H1299. Nature of the data set: Cytotoxicity against human NCI-H1299 cells assessed as reduction in cell growth incubated for 72 hrs by CCK-8 assay. The class given is functional, cell-based. To be noted: NCI-H1299, 72 h.
The next data set has as its target Cholinesterase (Homo sapiens, UniProt P06276). The data set can be described thus: Inhibition of BchE (unknown origin).
The next data set has as its target Acetylcholinesterase (Homo sapiens, UniProt P22303). Nature of the data set: Inhibition of AChE (unknown origin).
A short description of data set [7]: Antiproliferative activity against mouse […] cells assessed as inhibition of cell growth incubated for 48 hrs by MTT assay. The following applies: time 48 hrs, read-out: ED50 (the source's name). The class given is functional, cell-based.
Another data set has as its system HCT-116. Nature of the data set: Antiproliferative activity against human HCT-116 cells assessed reduction in cell growth incubated for 24 hrs by MTT assay. It is filed as functional, cell-based. To be noted: HCT-116, 24 h.

For orientation: IC50 means the concentration at which inhibition is half-maximal.

Coagulation factor X, sequence (P00742 41-179 limits assumed): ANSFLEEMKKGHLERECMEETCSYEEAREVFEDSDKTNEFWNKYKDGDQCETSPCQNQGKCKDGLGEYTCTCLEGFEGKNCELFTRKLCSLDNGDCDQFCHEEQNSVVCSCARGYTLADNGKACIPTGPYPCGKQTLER
Coagulation factor X, sequence (P00742 235-488 limits assumed): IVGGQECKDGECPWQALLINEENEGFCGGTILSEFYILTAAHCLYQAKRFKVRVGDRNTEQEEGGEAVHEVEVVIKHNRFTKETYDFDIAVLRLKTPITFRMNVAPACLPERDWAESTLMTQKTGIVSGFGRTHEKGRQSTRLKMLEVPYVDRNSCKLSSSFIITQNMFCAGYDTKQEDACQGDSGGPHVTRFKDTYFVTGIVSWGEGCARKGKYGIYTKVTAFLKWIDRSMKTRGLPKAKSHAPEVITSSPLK
Cholinesterase, sequence (P06276 whole entry): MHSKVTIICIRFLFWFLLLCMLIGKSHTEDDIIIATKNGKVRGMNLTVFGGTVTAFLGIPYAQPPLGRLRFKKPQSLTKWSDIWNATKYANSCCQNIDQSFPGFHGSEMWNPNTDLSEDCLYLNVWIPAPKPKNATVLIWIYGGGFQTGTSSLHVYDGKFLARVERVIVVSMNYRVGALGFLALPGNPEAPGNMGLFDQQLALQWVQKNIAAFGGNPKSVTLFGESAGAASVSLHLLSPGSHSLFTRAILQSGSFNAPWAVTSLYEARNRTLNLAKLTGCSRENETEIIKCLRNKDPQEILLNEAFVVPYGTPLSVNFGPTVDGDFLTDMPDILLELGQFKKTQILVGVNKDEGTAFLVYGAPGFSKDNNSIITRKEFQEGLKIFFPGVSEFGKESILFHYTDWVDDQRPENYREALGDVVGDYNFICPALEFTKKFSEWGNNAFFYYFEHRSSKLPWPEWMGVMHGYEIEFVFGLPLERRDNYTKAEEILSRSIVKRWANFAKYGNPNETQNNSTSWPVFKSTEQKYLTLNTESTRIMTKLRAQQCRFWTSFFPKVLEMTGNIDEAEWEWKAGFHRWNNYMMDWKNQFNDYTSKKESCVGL
Histone deacetylase 2, sequence (Q92769 whole entry): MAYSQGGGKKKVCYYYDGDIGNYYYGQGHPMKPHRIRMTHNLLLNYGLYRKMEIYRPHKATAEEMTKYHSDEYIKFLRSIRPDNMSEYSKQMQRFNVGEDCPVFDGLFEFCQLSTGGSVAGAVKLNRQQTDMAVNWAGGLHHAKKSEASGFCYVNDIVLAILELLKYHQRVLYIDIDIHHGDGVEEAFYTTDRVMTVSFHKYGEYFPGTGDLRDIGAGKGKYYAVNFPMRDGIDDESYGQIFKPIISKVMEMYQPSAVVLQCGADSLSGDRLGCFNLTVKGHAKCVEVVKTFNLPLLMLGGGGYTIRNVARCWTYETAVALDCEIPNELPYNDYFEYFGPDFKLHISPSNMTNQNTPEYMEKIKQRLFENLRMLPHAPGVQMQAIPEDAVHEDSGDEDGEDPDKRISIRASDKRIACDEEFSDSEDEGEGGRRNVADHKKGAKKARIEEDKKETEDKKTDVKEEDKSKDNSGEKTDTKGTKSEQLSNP
Histone deacetylase 1, sequence (Q13547 whole entry): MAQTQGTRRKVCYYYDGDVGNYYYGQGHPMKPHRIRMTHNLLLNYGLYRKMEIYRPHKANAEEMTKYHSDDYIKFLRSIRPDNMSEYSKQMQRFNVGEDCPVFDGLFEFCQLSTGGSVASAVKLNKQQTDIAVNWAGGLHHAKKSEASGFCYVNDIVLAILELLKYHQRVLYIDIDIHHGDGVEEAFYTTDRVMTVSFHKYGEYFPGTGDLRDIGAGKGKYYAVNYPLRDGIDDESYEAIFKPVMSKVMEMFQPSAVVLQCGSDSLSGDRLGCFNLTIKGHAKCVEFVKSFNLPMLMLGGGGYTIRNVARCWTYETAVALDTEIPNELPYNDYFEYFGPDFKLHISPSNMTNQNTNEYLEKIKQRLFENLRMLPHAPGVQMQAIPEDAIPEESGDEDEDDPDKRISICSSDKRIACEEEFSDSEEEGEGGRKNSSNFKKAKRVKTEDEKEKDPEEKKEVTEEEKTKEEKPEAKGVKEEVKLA
Acetylcholinesterase, sequence (P22303 whole entry): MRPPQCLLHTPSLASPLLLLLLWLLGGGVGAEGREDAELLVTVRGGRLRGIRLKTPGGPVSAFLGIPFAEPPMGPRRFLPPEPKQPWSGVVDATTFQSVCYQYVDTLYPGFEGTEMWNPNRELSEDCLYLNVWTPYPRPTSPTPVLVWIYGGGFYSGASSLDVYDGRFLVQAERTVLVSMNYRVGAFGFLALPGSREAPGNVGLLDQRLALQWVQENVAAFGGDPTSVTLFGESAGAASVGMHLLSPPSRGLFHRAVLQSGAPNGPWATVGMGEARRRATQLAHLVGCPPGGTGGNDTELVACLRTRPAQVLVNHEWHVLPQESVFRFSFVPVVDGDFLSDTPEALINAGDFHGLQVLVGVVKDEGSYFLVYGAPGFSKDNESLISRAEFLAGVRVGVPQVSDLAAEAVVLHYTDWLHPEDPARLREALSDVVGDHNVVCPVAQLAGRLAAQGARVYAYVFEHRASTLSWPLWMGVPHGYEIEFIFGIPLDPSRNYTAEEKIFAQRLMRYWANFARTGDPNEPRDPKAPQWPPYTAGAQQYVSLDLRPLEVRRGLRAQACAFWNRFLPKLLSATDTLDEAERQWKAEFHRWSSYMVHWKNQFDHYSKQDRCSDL

`O=C1CN(S(=O)(=O)c2ccc3cc(Cl)ccc3c2)CC2(CO)NC3(CCN(c4ccncc4)CC3)CN12` (stereo unspecified) had an IC50 at Coagulation factor X of 0.61 nM.
Turning to `Cc1nc(C)c(C(=O)NCCCCCCCCCCCCNOC(=O)c2ccc3cc[nH]c3c2)nc1C`, the concentration for half-maximal inhibition (IC50) in the data set on MDA-MB-231 is 840 nM; in the data set on 4T1, 1160 nM; with MCF7 [2], 1110 nM; in the data set with HUVEC it was 3820 nM. For the same compound, the half-inhibitory concentration (IC50) at 5 days in [1] is 3160 nM.
Turning to `CN(CCCN(C)CCN1C(=O)c2cccc3c(N)c(N)cc(c23)C1=O)CCN1C(=O)c2cccc3c(N)c(N)cc(c23)C1=O`, the IC50 in the data set on HeLa is 90 nM; in the data set on PC-3, 180 nM; in the data set with HT-29 it was 60 nM.
The corresponding values for `O=C1c2cccc3c2c(cc2nccnc23)C(=O)N1CCNCCCNCCN1C(=O)c2cccc3c2c(cc2nccnc23)C1=O` are 200 nM, 530 nM and 20 nM.
In the case of `CC(C)(O)CCC[C@](C)(O)C1CC[C@]2(C)[C@@H]1[C@H](O)C[C@@H]1[C@@]3(C)Cc4nccnc4C(C)(C)[C@@H]3CC[C@]12C` (stereo partly specified), the IC50 in the data set with BGC-823 was determined as 11500 nM.
As for `COc1nccc2c1N1C(=O)c3cc4ccccc4n3C(=O)C1C2` (stereo unspecified), in the data set with MCF7 [3], the Activity came out at 50.9%.
Turning to `CCn1c(-c2ccc(OC)cc2)cn2nc(-c3ccc(OC)cc3)cc2c1=O`, the IC50 was 50600 nM in the data set on H322 and 49700 nM in the data set on A549 [4].
As to `C[C@H]1[C@H](C)CC[C@]2(C)CC[C@]3(C)C(=CC(=O)[C@@H]4[C@@]5(C)Cc6nccnc6[C@](C)(C(=O)OCc6ccccc6)[C@@H]5CC[C@]43C)[C@H]12`, the IC50 in the data set with A2780 was 13700 nM; with A-375, 2100 nM; in the data set with HT-29, 12200 nM; in the data set with FaDu it was above 30000 nM.
Regarding `Fc1ccc(CSc2nnc(-c3cnccn3)n2-c2ccccc2)cc1`, the figures for the IC50 (in data set [5]; in the data set with SW 1116) were 15000 nM and 4120 nM, respectively.
In the case of `O=c1c2cc(-c3ccc(Cl)cc3)nn2cc(-c2ccccc2)n1CCN1CCOCC1`, the 50% inhibitory concentration (IC50) in the data set on H322 is 34700 nM; in the data set with A549 [4], 24200 nM.
For the compound `Cn1cc(CCN2CCN(c3cnc(C(=O)Nc4cc(-c5cccs5)ccc4[N+](=O)[O-])cn3)CC2)c2ccccc21`, the IC50 at Histone deacetylase 1 was 260 nM; on Histone deacetylase 2 it was 2470 nM; at Histone deacetylase 3, 1000 nM.
Regarding `CN1C2(CCN(c3ccncc3)CC2)CN2C(=O)CN(S(=O)(=O)c3ccc4cc(Cl)ccc4c3)CC21CO` (stereo unspecified), 0.58 nM corresponded to half-maximal inhibition against Coagulation factor X (IC50).
In the case of `c1cn2cc(-c3ccc4cn[nH]c4c3)nc(Nc3ccc(N4CCOCC4)cc3)c2n1` [ENTOSPLETINIB], the concentration for half-maximal inhibition (IC50) with A549 [6] was above 10000 nM; in the data set with NCI-H460, above 10000 nM; in the data set on OVCAR-5 it was 8300 nM; with HEY, above 10000 nM; in the data set with Caco-2 it was 6860 nM; in the data set on ES-2 it was above 10000 nM. Also, the half-inhibitory concentration (IC50) is above 10000 nM with SW626, above 10000 nM in the data set on SK-OV-3 and 6260 nM in the data set on NCI-H1299.
`Fc1cccc(-c2cnc3cccnc3n2)c1`: the 50% inhibitory concentration (IC50) against Cholinesterase came out at 583 nM; against Acetylcholinesterase it was 800 nM.
For `C[C@@H]1[C@@]2(CC[C@](C)(O)CO2)O[C@H]2C=C3[C@@H]4[C@@H](O)C[C@H]5Cc6nc7c(nc6C[C@]5(C)[C@H]4C[C@@H](O)[C@]3(C)[C@]21O)C[C@@H]1CC[C@@H]2[C@H](CC(=O)[C@]23C[C@@H]2O[C@]4(CCC(C)(C)O4)[C@@H](C)[C@@H]2[C@]3(C)O)[C@@]1(C)C7` [RITTERAZINE D], in data set [7], the EC50 came out at 0.17 nM.
The compound `C[C@@H]1[C@]2(O[C@H]3C=C4[C@@H]5CC[C@H]6Cc7nc8c(nc7C[C@]6(C)[C@H]5C[C@@H](O)[C@]4(C)[C@]31O)C[C@@H]1CC[C@H]3C4=CC5O[C@@]6(CCC(C)(C)O6)[C@@H](C)[C@@H]5[C@@]4(C)[C@H](O)C[C@@H]3[C@@]1(C)C8)O[C@@](C)(COC(=O)CNC(=O)Cc1cc(=O)oc3cc(N(C)C)ccc13)C[C@H]2O` (stereo partly specified) returned an IC50 in the data set on HCT-116 of 79 nM.
